In patent US20110021355A1, “FORMULATION WITH REDUCED HYGROSCOPICITY” (BAYER TECHNOLOGY SERVICES GMBH, priority 2008, published 2011):

Assay: Final pH of the formulation after dissolution in 0.01-molar hydrochloric acid / release
Format: physicochemical
Conditions: 0.1 g solid in 100 g of 0.01-molar hydrochloric acid, 400 rpm (FIG. 2)
Description: For verification of the final pH after dissolution, 100 g of 0.01-molar hydrochloric acid was put in a beaker and stirred with an inclined-vane stirrer at 400 rpm. Then 0.1 g of the solid to be verified (formulation from example 1, and magnesium hydroxide) was added and the increase in pH was recorded (pH-meter: Knick®Calimatic 766).

Which “time after which the final pH is established” value does the source give for `[Mg+2].[OH-].[OH-]` [pure magnesium hydroxide, magnesium hydroxide] here?
Its value is “about 1800 s”.
